From PubChem BioAssay (NCI)
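Method: 48-hour compound exposure of cells in 96-well plates, five concentrations, linear interpolation of endpoints. GI50 marks 50% less growth. The concentration for full growth arrest is given as TGI.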

How the values were obtained:
Assay in all cases: NCI tumour cell line growth inhibition, 48 h
MOLT-4 leukemia = system: MOLT-4 leukemia
SK-MEL-2 melanoma = system: SK-MEL-2 melanoma
SK-OV-3 ovarian = system: SK-OV-3 ovarian
MCF7 breast = system: MCF7 breast
COLO 205 colon = system: COLO 205 colon
K-562 leukemia = system: K-562 leukemia
HL-60(TB) leukemia = system: HL-60(TB) leukemia
CAKI-1 renal = system: CAKI-1 renal
M14 melanoma = system: M14 melanoma
SR leukemia = system: SR leukemia
UACC-62 melanoma = system: UACC-62 melanoma
NCI-H226 lung = system: NCI-H226 lung
TK-10 renal = system: TK-10 renal
HCT-15 colon = system: HCT-15 colon
SNB-19 CNS = system: SNB-19 CNS
SF-268 CNS = system: SF-268 CNS
UO-31 renal = system: UO-31 renal
NCI-H522 lung = system: NCI-H522 lung
SW-620 colon = system: SW-620 colon
SF-539 CNS = system: SF-539 CNS
UACC-257 melanoma = system: UACC-257 melanoma
HCC-2998 colon = system: HCC-2998 colon
HS 578T breast = system: HS 578T breast
NCI/ADR-RES ovarian = system: NCI/ADR-RES ovarian
KM12 colon = system: KM12 colon
A498 renal = system: A498 renal
A549 NSCLC = system: A549 NSCLC
MDA-MB-435 = system: MDA-MB-435
ACHN renal = system: ACHN renal
PC-3 prostate = system: PC-3 prostate
OVCAR-3 ovarian = system: OVCAR-3 ovarian
HCT-116 colon = system: HCT-116 colon
CCRF-CEM leukemia = system: CCRF-CEM leukemia
NCI-H23 lung = system: NCI-H23 lung
MALME-3M melanoma = system: MALME-3M melanoma
OVCAR-4 ovarian = system: OVCAR-4 ovarian
LOX IMVI melanoma = system: LOX IMVI melanoma
NCI-H460 lung = system: NCI-H460 lung
RPMI-8226 leukemia = system: RPMI-8226 leukemia
SF-295 CNS = system: SF-295 CNS
SNB-75 CNS = system: SNB-75 CNS
BT-549 breast = system: BT-549 breast
OVCAR-5 ovarian = system: OVCAR-5 ovarian
RXF 393 renal = system: RXF 393 renal
T-47D breast = system: T-47D breast
U251 CNS = system: U251 CNS
OVCAR-8 ovarian = system: OVCAR-8 ovarian
SN12C renal = system: SN12C renal
SK-MEL-5 melanoma = system: SK-MEL-5 melanoma
MDA-MB-231 breast = system: MDA-MB-231 breast
786-0 renal = system: 786-0 renal
DU-145 prostate = system: DU-145 prostate
HOP-92 NSCLC = system: HOP-92 NSCLC
HT29 colon = system: HT29 colon
HOP-62 NSCLC = system: HOP-62 NSCLC
SK-MEL-28 melanoma = system: SK-MEL-28 melanoma
IGROV1 ovarian = system: IGROV1 ovarian

## O=c1ccc2nc(-c3ccccc3)nn(-c3ccccc3)c-2c1
MOLT-4 leukemia
  GI50: 546 nM
  TGI: 1970 nM
SK-MEL-2 melanoma
  GI50: 2280 nM
  TGI: 4.45 µM
SK-OV-3 ovarian
  GI50: 13.3 µM
  TGI: 26.6 µM
MCF7 breast
  GI50: 1110 nM
  TGI: 2740 nM
COLO 205 colon
  GI50: 589 nM
  TGI: 1800 nM
K-562 leukemia
  GI50: 353 nM
  TGI: 1120 nM
HL-60(TB) leukemia
  GI50: 362 nM
  TGI: 1240 nM
CAKI-1 renal
  GI50: 1500 nM
  TGI: 2890 nM
M14 melanoma
  GI50: 1670 nM
  TGI: 3.27 µM
SR leukemia
  GI50: 309 nM
  TGI: 1520 nM
UACC-62 melanoma
  GI50: 1840 nM
  TGI: 4.13 µM
NCI-H226 lung
  GI50: 2000 nM
  TGI: 4.21 µM
TK-10 renal
  GI50: 1390 nM
  TGI: 2700 nM
HCT-15 colon
  GI50: 775 nM
  TGI: 2430 nM
SNB-19 CNS
  GI50: 16.9 µM
  TGI: 41.1 µM
SF-268 CNS
  GI50: 3.48 µM
  TGI: 13.5 µM
UO-31 renal
  GI50: 512 nM
  TGI: 992 nM
NCI-H522 lung
  GI50: 462 nM
  TGI: 918 nM
SW-620 colon
  GI50: 1650 nM
  TGI: 3.53 µM
SF-539 CNS
  GI50: 1920 nM
  TGI: 3.76 µM
UACC-257 melanoma
  GI50: 1560 nM
  TGI: 2940 nM
HCC-2998 colon
  GI50: 5.13 µM
  TGI: 12.3 µM
HS 578T breast
  GI50: 2650 nM
  TGI: 8.47 µM
NCI/ADR-RES ovarian
  GI50: 8.11 µM
  TGI: 48.4 µM
KM12 colon
  GI50: 16.4 µM
  TGI: 37.5 µM
A498 renal
  GI50: 18.1 µM
  TGI: 33.4 µM
A549 NSCLC
  GI50: 9.26 µM
  TGI: 36.7 µM
MDA-MB-435
  GI50: 1850 nM
  TGI: 4.17 µM
ACHN renal
  GI50: 470 nM
  TGI: 1440 nM
PC-3 prostate
  GI50: 2140 nM
  TGI: 5.71 µM
OVCAR-3 ovarian
  GI50: 1010 nM
  TGI: 2340 nM
HCT-116 colon
  GI50: 790 nM
  TGI: 2080 nM
CCRF-CEM leukemia
  GI50: 274 nM
  TGI: 1230 nM
NCI-H23 lung
  GI50: 2260 nM
  TGI: 5.6 µM
MALME-3M melanoma
  GI50: 479 nM
  TGI: 1670 nM
OVCAR-4 ovarian
  GI50: 1500 nM
  TGI: 2850 nM
LOX IMVI melanoma
  GI50: 2080 nM
  TGI: 4.27 µM
NCI-H460 lung
  GI50: 6.63 µM
  TGI: 18.3 µM
RPMI-8226 leukemia
  GI50: 2020 nM
  TGI: 5.32 µM
SF-295 CNS
  GI50: 13 µM
  TGI: 32.1 µM
SNB-75 CNS
  GI50: 4.83 µM
  TGI: 11.3 µM
BT-549 breast
  GI50: 2190 nM
  TGI: 4.43 µM
OVCAR-5 ovarian
  GI50: 2600 nM
  TGI: 7.54 µM
RXF 393 renal
  GI50: 1670 nM
  TGI: 3.06 µM
T-47D breast
  GI50: 485 nM
  TGI: 1260 nM
U251 CNS
  GI50: 5.78 µM
  TGI: 20.4 µM
OVCAR-8 ovarian
  GI50: 2210 nM
  TGI: 5.59 µM
SN12C renal
  GI50: 1770 nM
  TGI: 3.53 µM
SK-MEL-5 melanoma
  GI50: 3.71 µM
  TGI: 16.3 µM
MDA-MB-231 breast
  GI50: 1880 nM
  TGI: 3.84 µM
786-0 renal
  GI50: 1840 nM
  TGI: 3.36 µM
DU-145 prostate
  GI50: 1920 nM
  TGI: 3.37 µM
HOP-92 NSCLC
  GI50: 1500 nM
  TGI: 2930 nM
HT29 colon
  GI50: 1800 nM
  TGI: 3.45 µM
HOP-62 NSCLC
  GI50: 5.34 µM
  TGI: 26.1 µM
SK-MEL-28 melanoma
  GI50: 1630 nM
  TGI: 3.11 µM
IGROV1 ovarian
  GI50: 1420 nM
  TGI: 3.47 µM
